We go through one molecule from patent US20210332436A1, “STEM CELL-BASED MULTIPLEX METHODS AND COMPOSITIONS” (MEMORIAL SLOAN-KETTERING CANCER CENTER, priority 2018, published 2021).

In test [1] the test system is day 35 MIX30 PFC cultures. The test can be described thus: Multiplex PFC WNT response assay (CHIR99021 treatment of pooled PFC cultures, stem cell proliferation/enrichment readout). It is filed as cell-based, human. Particulars: 3 μM for 10 days, vs untreated. The source says: In addition to probing developmental phenotypes related to cell fate specification and proliferation, the present multiplex platform also allows us to evaluate the cell-type specific activity of key molecular pathways. The WNT/βcatenin pathway is a critical regulator of stem cell proliferation and neurogenesis during cortical development (Hirabayashi et al., Development 131, 2791-2801 (2004); Munji et al., J Neurosci 31, 1676-1687 (2011); Chenn, Organogenesis 4, 76-80 (2008)) and is a central node among a network of autism-related genes (Packer, Mol Psychiatry, (2016); Krumm et al., Trends Neurosci 37, 95-105 (2014); Gilman et al., Neuron 70, 898-907 (2011)). It was therefore tested autism lines for the ability to respond to WNT/βcatenin signaling by treating day 35 MIX30 PFC cultures with the GSK3α/β inhibitor CHIR99021 (3 μM) for 10 days, using stem cell proliferation as an initial readout of WNT activity (Kim et al., Nat Neurosci 12, 1390-1397 (2009)) (FIG. 3a). […] Lineage specificity of the WNT-response phenotype was assessed by differentiating the MIX30 library to CD49d^+ cranial neural crest (CNC) precursors ([…] et al., Nature 531, 105-109 (2016)), whose specification is dependent on WNT/β catenin activity (Dorsky et al., Nature 396, 370-373 (1998)) (FIG. 3c, FIGS. 10d-10f). […] DNA was quantified using a fluorometer (Qubit 3.0, Thermo Q33216). […]

Test [2] concerns Day 20 PFC cultures. Briefly: Single genotype analysis of WNT responsiveness during PFC development (proliferation Ki67/DAPI and cell-cycle re-entry Ki67+EdU+/Ki67+). It is filed as cell-based, human. How it is done:
FIGS. 15a-15d provide additional data related to WNT assays. FIG. 15a provides PFC WNT response of autism lines relative to a negative control (UMOD). WNT response is measured by relative change in stem cell enrichment versus an untreated control. Red bars indicate significant increases or decreases in WNT response (FDR<0.05). FIG. 15b provides efficiency of neural crest specification relative to a negative control (UMOD). Red bars indicate significant increases or decreases in WNT response (FDR<0.05). FIG. 15c provides schematic of quantification for zebrafish jaw development at 7 dpf. A straight line is drawn from the top of the eyes, and second line is then drawn to the middle of the upper jaw. The angle between the two lines (0) is measured using ImageJ. A cut-off value of −1 s.d. (red line) from the mean (green line) of the no injection group was used to define hypomorphic animals. Graphs show raw data that underlie the hypomorph quantification in FIG. 3e. p<0.0001 for group differences calculated by non-parametric Kruskall-Wallis test, followed by dunn's test for multiple comparisons CTNNB1 p=0.0007, ANKRD11 p=0.0013, CUL3 p=0.0073, KMT2C p=0.0007. dpf, Days post fertilization. FIG. 15d provides a single genotype analysis of WNT responsiveness during PFC development. […] Day 20 PFC cultures were treated with CHIR99021 (0.6 μM) for 2 days or left untreated. At day 22, cultures were pulsed with EdU using the EdU Click-iT system according to manufacturer protocol (ThermoFisher Scientific C10640). Briefly, cells were treated with EdU for 1 hour, dissociated with Accutase for 30 minutes at 37 C, and passaged onto laminin/fibronectin coated plates at a density of 200,000-400,000 cells/cm2 in the presence of ROCK inhibitor (Y-27632, 10 μM, Tocris 1254). Cell were fixed 18 hours later and fixed for immunocytochemistry. ImageJ was used for cell counting. Images were thresholded to define individual cells (particles) and cells were counted using the analyze particle function.

Setting [3] is: 5/5 class 1 lines compared to MEL1, 0.6 μM for 2 days.

Consider `Cc1c[nH]c(-c2cnc(NCCNc3ccc(C#N)cn3)nc2-c2ccc(Cl)cc2Cl)n1` [CHIR99021], for which the “stem cell proliferation (readout of WNT activity)” value in test [1] is on record as “enhanced stem cell proliferation”. In addition, in test [2] (setting [3]), the “proliferation response to CHIR (CHIR/Baseline, Ki67/DAPI)” value is “blunted proliferation response” and the “rates of cell-cycle re-entry (Ki67+EdU+/Ki67+) in response to CHIR” value is listed as “blunted response”. The “rates of cell-cycle re-entry (Ki67+EdU+/Ki67+) in response to CHIR” value in test [2] (control lines, 0.6 μM for 2 days) is listed as “increased rates of cell-cycle re-entry”.
